Active and inactive are the calls of the source. The calls are words filed in the database; no cut-off is given here.
Experiments:
[1] = system: HCT-116; assay: Cell cycle arrest in human HCT116 cells assessed as accumulation at G2/M phase at 2.5 uM after 48 hrs (reference value: 21.5%); assay type: functional
[2] = system: HCT-116; assay: Cytotoxicity against human HCT116 cells at 1 to 10 uM after 48 hrs by CytoTox-96 non-radioactive assay; assay type: functional, cell-based
[3] = system: HCT-116; assay: Induction of apoptosis in human HCT116 cells assessed as early apoptotic cells at 1 uM after 48 hrs by Annexin-V and dead cell assay (reference value: 1.70%); assay type: functional
[4] = system: CCD-18Co; assay: Cytotoxicity against human CCD-18Co cells at 1 to 10 uM after 48 hrs by CytoTox-96 non-radioactive assay; assay type: cell-based
[5] = system: HCT-116; assay: Induction of apoptosis in human HCT116 cells assessed as Bcl-2 protein level at 1 uM after 48 hrs by Western blot method relative to beta-actin; assay type: functional
[6] = system: HT-29; assay: Induction of apoptosis in human HT-29 cells assessed as increase in caspase-3/7 activity at 1 to 10 uM measured after 48 hrs by Caspase-Glo 3/7 assay; assay type: functional, cell-based
[7] = system: HT-29; assay: Cytotoxicity against human HT-29 cells assessed as reduction in cell viability by MTT assay; assay type: functional, cell-based
[8] = system: HCT-116; assay: Induction of apoptosis in human HCT116 cells assessed as p53 protein level at 1 uM after 48 hrs by Western blot method relative to beta-actin; assay type: functional
[9] = system: HT-29; assay: Induction of apoptosis in human HT-29 cells assessed as caspase-3 protein level at 10 uM after 48 hrs by Western blot method relative to beta-actin; assay type: functional
[10] = system: HCT-116; assay: Induction of apoptosis in human HCT116 cells assessed as late apoptotic cells at 2.5 uM after 48 hrs by Annexin-V and dead cell assay (reference value: 1.45%); assay type: functional
[11] = system: HCT-116; assay: Induction of apoptosis in human HCT116 cells assessed as p21 protein level at 10 uM after 48 hrs by Western blot method relative to beta-actin; assay type: functional
[12] = system: HT-29; assay: Cell cycle arrest in human HT-29 cells assessed as accumulation at G2/M phase at 10 uM after 48 hrs (reference value: 14.7%); assay type: functional
[13] = system: HT-29; assay: Cell cycle arrest in human HT-29 cells assessed as accumulation at G2/M phase at 5 uM after 48 hrs (reference value: 14.7%); assay type: functional
[14] = system: HCT-116; assay: Cell cycle arrest in human HCT116 cells assessed as accumulation at S phase at 10 uM after 48 hrs (reference value: 10.9%); assay type: functional
[15] = system: HT-29; assay: Induction of apoptosis in human HT-29 cells assessed as Bcl-2 protein level at 5 uM after 48 hrs by Western blot method relative to beta-actin; assay type: functional
[16] = system: HCT-116; assay: Induction of apoptosis in human HCT116 cells assessed as caspase-3 protein level at 1 uM after 48 hrs by Western blot method relative to beta-actin; assay type: functional
[17] = system: HCT-116; assay: Induction of apoptosis in human HCT116 cells assessed as in p21 protein level at 5 uM after 48 hrs by Western blot method relative to beta-actin; assay type: functional
[18] = system: HCT-116; assay: Induction of apoptosis in human HCT116 cells assessed as cleaved caspase-3 protein level at 10 uM after 48 hrs by Western blot method relative to caspase-3; assay type: functional
[19] = system: HCT-116; assay: Induction of apoptosis in human HCT116 cells assessed as caspase-3 protein level at 5 uM after 48 hrs by Western blot method relative to beta-actin; assay type: functional
[20] = system: HT-29; assay: Cell cycle arrest in human HT-29 cells assessed as accumulation at G0/G1 phase at 10 uM after 48 hrs (reference value: 53.9%); assay type: functional
[21] = system: HT-29; assay: Induction of apoptosis in human HT-29 cells assessed as Bcl-2 protein level at 1 uM after 48 hrs by Western blot method relative to beta-actin; assay type: functional
[22] = system: HCT-116; assay: Induction of apoptosis in human HCT116 cells assessed as CDK2 protein level at 2.5 uM after 48 hrs by Western blot method relative to beta-actin; assay type: functional
[23] = system: CCD-18Co; assay: Antiproliferative activity against human CCD-18Co cells at 1 to 10 uM after 48 hrs by CytoTox-96 non-radioactive assay; assay type: cell-based
[24] = system: HT-29; assay: Induction of apoptosis in human HT-29 cells assessed as p21 protein level at 1 uM after 48 hrs by Western blot method relative to beta-actin; assay type: functional
[25] = system: HCT-116; assay: Induction of apoptosis in human HCT116 cells assessed as necrotic cells at 1 uM after 48 hrs by Annexin-V and dead cell assay (reference value: 0.10%); assay type: functional
[26] = system: HCT-116; assay: Cell cycle arrest in human HCT116 cells assessed as accumulation at G0/G1 phase at 1 uM after 48 hrs (reference value: 38.5%); assay type: functional
[27] = system: HT-29; assay: Cell cycle arrest in human HT-29 cells assessed as accumulation at S phase at 1 uM after 48 hrs (reference value: 9.7%); assay type: functional
[28] = system: HT-29; assay: Induction of apoptosis in human HT-29 cells assessed as cleaved caspase-3 protein level at 2.5 uM after 48 hrs by Western blot method relative to caspase-3; assay type: functional
[29] = system: HCT-116; assay: Induction of apoptosis in human HCT116 cells assessed as in p53 protein level at 5 uM after 48 hrs by Western blot method relative to beta-actin; assay type: functional
[30] = system: HCT-116; assay: Induction of apoptosis in human HCT116 cells assessed as necrotic cells at 10 uM after 48 hrs by Annexin-V and dead cell assay (reference value: 0.10%); assay type: functional
[31] = system: HCT-116; assay: Induction of apoptosis in human HCT116 cells assessed as cleaved caspase-3 protein level at 2.5 uM after 48 hrs by Western blot method relative to caspase-3; assay type: functional
[32] = system: HT-29; assay: Cell cycle arrest in human HT-29 cells assessed as accumulation at G2/M phase at 2.5 uM after 48 hrs (reference value: 14.7%); assay type: functional
[33] = system: HCT-116; assay: Induction of apoptosis in human HCT116 cells assessed as early apoptotic cells at 5 uM after 48 hrs by Annexin-V and dead cell assay (reference value: 1.70%); assay type: functional

O=C(OC[C@H]1O[C@@H](OC(=O)c2cc(O)c(O)c(O)c2)[C@H](OC(=O)c2cc(O)c(O)c(O)c2)[C@@H](OC(=O)c2cc(O)c(O)c(O)c2)[C@@H]1OC(=O)c1cc(O)c(O)c(O)c1)c1cc(O)c(O)c(O)c1 [PENTAGALLOYL GLUCOSE]
Activity [1]: 20.5% | Activity [2]: Active | Activity [3]: 1% | Activity [4]: Non-Toxic | fold change (FC) [5]: 1.3 | Activity [6]: Active | IC50 [7]: 4.46 µM | fold change (FC) [8]: 1.8 | fold change (FC) [9]: 5.8 | Activity [10]: 1% | fold change (FC) [11]: 1.6 | Activity [12]: 11.7% | Activity [13]: 16.3% | Activity [14]: 11.8% | fold change (FC) [15]: 0.4 | fold change (FC) [16]: 29.6 | fold change (FC) [17]: 0.7 | fold change (FC) [18]: 1.7 | fold change (FC) [19]: 309.9 | Activity [20]: 37.3% | fold change (FC) [21]: 0.7 | fold change (FC) [22]: 0.8 | Activity [23]: Non-Toxic | fold change (FC) [24]: 2.4 | Activity [25]: 0.1% | Activity [26]: 37.5% | Activity [27]: 12.7% | fold change (FC) [28]: 6 | fold change (FC) [29]: 4.9 | Activity [30]: 0.25% | fold change (FC) [31]: 1.8 | Activity [32]: 20.8% | Activity [33]: 1.85%

— ChEMBL document CHEMBL4118193, “1,2,3,4,6-Penta-O-galloyl-β-d-glucose suppresses colon cancer through induction of tumor suppressor” (Bioorg Med Chem Lett, 2018)
